Data as given in US20150065709A1, “Aminoquinazoline Derivative And Use Thereof In Preparing Anti-Malignant Tumor Medicament” (METABOMICS, INC, priority 2012, published 2015).

Experiments:
[1] = test system: NUGC-3; assay: Inhibition of tumor cells, WST method; format: cell-based; conditions: Homo sapiens, Stomach
Description: (§1) (1) Compounds: in vitro studies the test compounds was dissolved in 100% DMSO and diluted until the final concentration of DMSO was 0.1%. The 0.1% (v/v) DMSO was added into culture medium as solvent control. 9 concentration gradients were tested and each gradient was repeated twice. (2) Tumor cell lines: the tumor cell lines were cultivated in RPMI10 culture medium containing 10% fetal calf serum in incubator at 37° C. in a 5% CO2 air incubator. The tested tumor cell lines were: BT474, MDA-MB-231, SK-Br-3, A431, H292, H1975, HCC827, A549, H1650 and H1734. (3) MTS method: cells were seeded into 96-well plate to give a density of about 3000 cells per well, and incubated overnight in a humidified incubator at 37° C. In the next day, the test compounds were added to the wells and further incubated for 72 hours. The cell activity was detected using MTS. IC50 was calculated (the concentration of a compound that is required for 50% inhibition of the cell growth versus the DMSO control group, using nonlinear regression analysis of software GraphPad Prism). […] In a 96-well plate, each test compound was tested at 9 dosage concentrations and each dosage was made in triplicate. Samples were added in 100 μL/well. Cell control and negative control wells contained diluents instead of compounds. Except the negative control well, 100 μL cell suspension of complete medium was added into each test well, wherein corresponding cell numbers were included to assure that the cells in cell control well just cover the bottom of the well as the required incubation time was reached. The plate was incubated in a CO2 incubator at 37° C. for 48 hours. The liquid in test wells was removed by pipetting. 100 μL CCK-8 (Cell counting Kit-8, purchased from DOJINDO Molecular Technologies) detection liquid (containing 10% CCK-8, 5% FBS corresponding medium) was added into each test well, then the plate was incubated in a CO2 incubator under at 37° C. for 3 hours. OD value was detected by ELIASA at A450 nm. Cell viability percentage (%)=(O.D. test compound-O.D. blank)/(O.D. control-O.D. blank)×100. Mean value was calculated for each 3 repeated wells, and IC50 was calculated using nonlinear regression (fitted curve) data analysis method.
(§2) Parts of test results of compound Ie listed in the table 3 and all of the test results listed in the table 4 were obtained by WST method.

[2] = test system: FaDu; assay: Inhibition of tumor cells, WST method; format: cell-based; conditions: Homo sapiens, Head and Neck
Description: as §1, §2

[3] = test system: ZR-75-30; assay: Inhibition of tumor cells, WST method; format: cell-based; conditions: Homo sapiens, Breast
Description: as §1, §2

[4] = test system: H1975; assay: Inhibition of tumor cells, WST method; format: cell-based; conditions: Homo sapiens, NCI-H1975, 48 hours
Description: as §1, §2

[5] = test system: H292; assay: Inhibition of tumor cells, WST method; format: cell-based; conditions: Homo sapiens, NCI-H292, 48 hours
Description: as §1, §2

[6] = test system: CW-2; assay: Inhibition of tumor cells, WST method; format: cell-based; conditions: Homo sapiens, Colon
Description: as §1, §2

[7] = test system: C-33A; assay: Inhibition of tumor cells, WST method; format: cell-based; conditions: Homo sapiens, Uterine Neck
Description: as §1, §2

[8] = test system: MDA-MB-468; assay: Inhibition of tumor cells, WST method; format: cell-based; conditions: Homo sapiens, Breast
Description: as §1, §2

[9] = test system: NCI-H2126; assay: Inhibition of tumor cells, WST method; format: cell-based; conditions: Homo sapiens, Lung
Description: as §1, §2

[10] = test system: NCI-N87; assay: Inhibition of tumor cells, WST method; format: cell-based; conditions: Homo sapiens, Stomach
Description: as §1, §2

[11] = test system: SK-Br-3; assay: Inhibition of tumor cells, WST method; format: cell-based; conditions: Homo sapiens, 48 hours
Description: as §1, §2

[12] = test system: A431; assay: Inhibition of tumor cells, WST method; format: cell-based; conditions: Homo sapiens, A-431, 48 hours
Description: as §1, §2

[13] = test system: ACHN; assay: Inhibition of tumor cells, WST method; format: cell-based; conditions: Homo sapiens, Kidney
Description: as §1, §2

[14] = test system: CAL27; assay: Inhibition of tumor cells, WST method; format: cell-based; conditions: Homo sapiens, CAL-27, Head and Neck
Description: as §1, §2

[15] = test system: H1650; assay: Inhibition of tumor cells, WST method; format: cell-based; conditions: Homo sapiens, NCI-H1650, 48 hours
Description: as §1, §2

[16] = test system: A549; assay: Inhibition of tumor cells, WST method; format: cell-based; conditions: Homo sapiens, 48 hours
Description: as §1, §2

[17] = test system: DU145; assay: Inhibition of tumor cells, WST method; format: cell-based; conditions: Homo sapiens, DU-145, Prostate
Description: as §1, §2

[18] = test system: Calu-3; assay: Inhibition of tumor cells, WST method; format: cell-based; conditions: Homo sapiens, Lung
Description: as §1, §2

[19] = test system: NCI-H358; assay: Inhibition of tumor cells, WST method; format: cell-based; conditions: Homo sapiens, Lung
Description: as §1, §2

[20] = test system: BT474; assay: Inhibition of tumor cells, WST method; format: cell-based; conditions: Homo sapiens, BT-474, 48 hours
Description: as §1, §2

[21] = Long-term toxicity experiment (28 days) in dogs; format: in vivo
Description: Experiment Animals: rats, male, 6-8 weeks of age, body weight: 180-250 g; dogs, male, about 24 months, body weight: 7-10 kg.
Preparation of sample: in rat's experiments the mixed formulation powder of the compound Ie was formulated into 0.1, 0.3 and 1 mg/mL homogeneous suspension for use; administration route: oral administration; […]. In dog's experiments the tablets of compound Ie were fed to dogs. […].
Sample collection: blood was collected at the time points of 1, 10, 20 and 28 days respectively, about 120-200 μL whole blood was collected from 3 animals at each time point. Blood was collected at 1 h, 4 h, 8 h and 24 h after administration.
Sample analysis: the collected samples were detected by LC-MS/MS, and the instrument model was SHIMADZU20 A-API4000.
Pharmacokinetic data analysis: the obtained plasma concentration data were fitted and calculated using WinNolin according to non-compartment model.

[22] = test system: H1975 human non-small cell lung cancer tumor cells; assay: Transplanted tumor in nude mice, initial H1975 test; format: in vivo, nude mice (BALB/c)
Description: H1975 human non-small cell lung cancer tumor cells were inoculated into 18 nude mice (BALB/c, male, 5-6 weeks of age), and when the mean tumor volume reaches 150 mm^3 the nude mice were randomized into three groups, including: control group (5 nude mice), 20 mg compound Ie/kg/day dose group (8 nude mice) and 75 mg Gefitinib/kg/day (5 nude mice). Test compounds were continuously administrated orally for 21 days. Tumor size and body weight of nude mice were recorded twice weekly from the first day of administration. […] was calculated using the formula (1×w^2), wherein 1 and w respectively represents the maximum and minimum size in each measurement. The change relation of mean tumor volume with the days after tumor transplantation was graphed according to the calculation results.

CN(C)C/C=C/C(=O)Nc1cc2c(Nc3ccc(F)c(Cl)c3)ncnc2cc1OC(F)F [Compound Ie]
IC50 [1]: 0.055 µM | IC50 [2]: 0.169 µM | IC50 [3]: 0.683 µM | IC50 [4]: 0.198 µM | IC50 [5]: 0.181 µM | IC50 [6]: 0.036 µM | IC50 [7]: 0.057 µM | IC50 [8]: 0.076 µM | IC50 [9]: 1.69 µM | IC50 [10]: 0.001 µM | IC50 [11]: 0.028 µM | IC50 [12]: 1.24 µM | IC50 [13]: 0.107 µM | IC50 [14]: 0.002 µM | IC50 [15]: 0.702 µM | IC50 [16]: 0.204 µM | IC50 [17]: 0.853 µM | IC50 [18]: 0.022 µM | IC50 [19]: 0.195 µM | IC50 [20]: 0.088 µM | toxicity reaction ([21]; dog, in vivo, 1 mg/kg): No toxicity reaction | toxicity reaction ([21]; dogs, 5 mg/kg, 28 days, reaction of Afatinib group greater than compound Ie group): toxicity reactions | T/C % ([22]; H1975 tumor model, 20 mg compound Ie/kg/day orally for 21 days): 59% | therapeutic effect on H1975 tumor model ([22]; compound Ie 20 mg/kg/day, Gefitinib 75 mg/kg/day, orally for 21 days): good therapeutic effect
